# Experimental data published in paper PMC5128878 (Scientific Reports, 2016).
# Where “and” joins values, the source holds several entries; their conditions need not be identical. Identical values can stand only once. Like-named read-outs stand apart in the source and are kept apart here.
# Experiments:
# α7 nAChR = target: T1, α7 nAChR (Homo sapiens, UniProt P36544); test: Two-electrode voltage clamp of ACh currents, α7 nAChRs (with RIC-3) expressed in Xenopus oocytes; type: cell-based; details: for IC50: IC50 (95% CI), ACh 100 μM
# T1 construct: expressed in transfected cells; host or cells: Xenopus laevis oocytes injected with cRNA
# Description: (§1) Oocytes isolated from mature female Xenopus laevis were supplied by the European Xenopus Resource Centre, University of Portsmouth, UK. Oocytes were treated with collagenase (0.5 mg/ml, Sigma type 1 A) in Ca^2+-free solution (96 mM NaCl, 2 mM KCl, 1 mM MgCl2, 5 mM HEPES, 2.5 mM Na-pyruvate, 100 U/mL penicillin, 0.1 mg/mL streptomycin, pH 7.5) with shaking at 19 °C to defolliculate and remove the connective tissue surrounding the cells. After separation, oocytes were washed 7 times with modified Barth’s solution (96 mM NaCl, 2 mM KCl, 1.8 mM CaCl2, 1 mM MgCl2, 5 mM HEPES, 2.5 mM Na-pyruvate, 0.5 mM theophylline, 50 μg/mL gentamicin, pH 7.5) and kept at 19 °C in the same solution.
# (§2) Healthy oocytes were injected with cRNA using a Nano-liter Injector (World Precision Instruments Inc, USA). Mixtures of nAChR subunit cRNAs were injected as follows; for heteromeric rat neuronal receptors a 1:1 ratio of α:β at 200 ng/μL; for mouse embryonic muscle a 1:1:1:1 ratio of α:β:γ:δ at 25 ng/μL; human α7 at 100 ng/μL was mixed with RIC-3 at 30 ng/μL. Each oocyte was injected with 50 nL of RNA solution. Injected oocytes were saved in Barth’s solution at 19 °C for two to three days for expression of the target protein. During this time oocytes were regularly checked to remove unhealthy ones.
# (§3) Electrophysiological recordings were taken from nAChR-expressing oocytes by two-electrode voltage clamp using a Geneclamp 500 voltage clamp amplifier (Axon instruments, USA). An oocyte was placed in the perfusion chamber using a plastic Pasteur pipette and the bath was perfused (~5 mL/min) with fresh Frog Ringer solution (96 mM NaCl, 2 mM KCl, 1.8 mM CaCl2 and 5 mM HEPES, pH 7.5). Microelectrodes were pulled from borosilicate glass capillaries (Harvard GC150TF-10) using a programmable micropipette puller (Sutter P97, USA), and they had resistances between 0.5 and 2.5 MΩ when filled with 3 M KCl. The oocyte was voltage-clamped at holding potentials (VH) between −60 and −100 mV. […] Currents were recorded to a PC via a digidata 1200 analog-to-digital converter (Axon Instuments, USA) using WinEDR v3.2.6 Software (Dr John Dempster, University of Strathclyde, UK).
# (§4) Graphpad Prism 6 was used for data analysis, graph plotting and curve fitting. All plotted points are the mean ± SEM obtained from 4–20 oocytes.
# α4β2 nAChR = target: T2, α4β2 nAChR (Rattus norvegicus, UniProt P09483+P12390); test: cell-based; type: cell-based; details: for IC50: IC50 (95% CI), ACh 10 μM
# T2 construct: expressed in transfected cells; host or cells: Xenopus laevis oocytes injected with cRNA
# Description: (§5) cDNA clones of rat neuronal nAChR subunits (α3, α4, β2 and β4) and mouse muscle subunits (α1, β1, γ and δ) were from the Salk Institute for Biological Studies (Professor Stephen Heinemann). The human α7 and RIC-3 cDNAs were provided by Professor David Sattelle (University College London).
# as §1, §2, §3, §4
# α3β4(F255V) nAChR = target: T3, α3β4(F255V) nAChR (Rattus norvegicus, UniProt P04757+P12392, F275V); test: Two-electrode voltage clamp of ACh currents, α3β4(F255V) nAChRs expressed in Xenopus oocytes; type: cell-based; details: for IC50: α3β4(F255V), ACh 100 μM
# T3 construct: expressed in transfected cells; host or cells: Xenopus laevis oocytes injected with cRNA
# Description: as §5, §1, §2, §3, §4
# α3β2 nAChR = α3β2 nAChR (Rattus norvegicus, UniProt P04757+P12390); test: Two-electrode voltage clamp of ACh currents, α3β2 nAChRs expressed in Xenopus oocytes; details: for IC50: IC50 (95% CI), ACh 30 μM
# Description: as §1, §2, §3, §4
# α4β4 nAChR = target: T4, α4β4 nAChR (Rattus norvegicus, UniProt P09483+P12392); test: cell-based; type: cell-based; details: for IC50: IC50 (95% CI), ACh 10 μM
# T4 construct: expressed in transfected cells; host or cells: Xenopus laevis oocytes injected with cRNA
# Description: as §1, §2, §3, §4
# α3β4 nAChR = target: T5, α3β4 nAChR (Rattus norvegicus, UniProt P04757+P12392); test: cell-based
# T5 construct: expressed in transfected cells; host or cells: Xenopus laevis oocytes injected with cRNA
# Description: as §1, §2, §3, §4
# α4β2(V253F) nAChR = target: T6, α4β2(V253F) nAChR (Rattus norvegicus, UniProt P09483+P12390, V277F); test: Two-electrode voltage clamp of ACh currents, α4β2(V253F) nAChRs expressed in Xenopus oocytes; type: cell-based; details: for IC50: α4β2(V253F), ACh 10 μM
# T6 construct: expressed in transfected cells; host or cells: Xenopus laevis oocytes injected with cRNA
# Description: as §5, §1, §2, §3, §4
# nAChRs = test: Two-electrode voltage clamp of Xenopus oocytes expressing nAChRs, statements across tested subtypes; type: cell-based
# Description: as §5, §1, §2, §3, §4
# α1β1γδ nAChR = target: T7, α1β1γδ nAChR (Mus musculus, UniProt P02716+P04756+P04760+P09690); test: cell-based; type: cell-based; details: α1β1γδ; for IC50: IC50 (95% CI), ACh 10 μM
# T7 construct: expressed in transfected cells; host or cells: Xenopus laevis oocytes injected with cRNA
# Description: as §1, §2, §3, §4
# [1] = system: human muscle-type nAChRs in TE671 cells; test: Muscle-type nAChRs in TE671 cells (previous study); type: cell-based; details: previous study compared with present oocyte data ref 8
# [2] = VH −60 mV, late current (1 min), read-out: IC50 (95% CI), Late
# [3] = VH −60 mV, peak current, read-out: IC50 (95% CI), Peak
# [4] = VH −80 mV, late current (1 min), read-out: IC50 (95% CI), Late
# [5] = VH −80 mV, peak current, read-out: IC50 (95% CI), Peak
# [6] = VH −100 mV, late current (1 min), read-out: IC50 (95% CI), Late
# [7] = VH −100 mV, peak current, read-out: IC50 (95% CI), Peak
# T3 sequence (P04757 26-499): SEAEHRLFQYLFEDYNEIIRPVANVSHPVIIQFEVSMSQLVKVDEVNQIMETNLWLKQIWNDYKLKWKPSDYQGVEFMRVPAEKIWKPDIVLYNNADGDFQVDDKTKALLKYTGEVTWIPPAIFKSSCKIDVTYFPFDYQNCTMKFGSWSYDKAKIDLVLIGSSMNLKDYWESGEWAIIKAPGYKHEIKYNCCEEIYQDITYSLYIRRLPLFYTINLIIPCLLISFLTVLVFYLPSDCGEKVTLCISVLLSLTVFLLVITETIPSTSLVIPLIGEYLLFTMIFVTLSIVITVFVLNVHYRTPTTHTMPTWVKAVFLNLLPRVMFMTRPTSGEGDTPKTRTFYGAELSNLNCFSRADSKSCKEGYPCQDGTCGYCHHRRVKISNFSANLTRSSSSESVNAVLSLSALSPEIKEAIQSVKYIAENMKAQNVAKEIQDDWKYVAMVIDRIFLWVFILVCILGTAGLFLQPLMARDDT
# T3 sequence (P12392 21-495 F275V): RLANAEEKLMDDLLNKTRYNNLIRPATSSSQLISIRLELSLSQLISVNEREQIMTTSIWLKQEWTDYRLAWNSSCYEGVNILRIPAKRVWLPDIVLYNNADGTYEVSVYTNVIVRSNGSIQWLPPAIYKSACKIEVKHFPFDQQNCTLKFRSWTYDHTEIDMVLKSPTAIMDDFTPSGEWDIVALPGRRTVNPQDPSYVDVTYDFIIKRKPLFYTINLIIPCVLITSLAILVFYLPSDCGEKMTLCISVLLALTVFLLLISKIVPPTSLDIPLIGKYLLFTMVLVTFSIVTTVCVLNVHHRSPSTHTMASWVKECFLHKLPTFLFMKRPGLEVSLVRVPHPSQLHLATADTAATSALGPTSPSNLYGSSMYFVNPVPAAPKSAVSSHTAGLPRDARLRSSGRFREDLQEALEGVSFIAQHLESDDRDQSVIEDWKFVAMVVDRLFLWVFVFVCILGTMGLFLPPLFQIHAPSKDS
# T5 sequence (P04757 26-499): as the sequence (P04757 26-499) above
# T5 sequence (P12392 21-495): as the sequence (P12392 21-495 F275V) above, with V255F counted along it
# α3β2 nAChR, sequence (P04757 26-499): as the sequence (P04757 26-499) above
# α3β2 nAChR, sequence (P12390 25-500): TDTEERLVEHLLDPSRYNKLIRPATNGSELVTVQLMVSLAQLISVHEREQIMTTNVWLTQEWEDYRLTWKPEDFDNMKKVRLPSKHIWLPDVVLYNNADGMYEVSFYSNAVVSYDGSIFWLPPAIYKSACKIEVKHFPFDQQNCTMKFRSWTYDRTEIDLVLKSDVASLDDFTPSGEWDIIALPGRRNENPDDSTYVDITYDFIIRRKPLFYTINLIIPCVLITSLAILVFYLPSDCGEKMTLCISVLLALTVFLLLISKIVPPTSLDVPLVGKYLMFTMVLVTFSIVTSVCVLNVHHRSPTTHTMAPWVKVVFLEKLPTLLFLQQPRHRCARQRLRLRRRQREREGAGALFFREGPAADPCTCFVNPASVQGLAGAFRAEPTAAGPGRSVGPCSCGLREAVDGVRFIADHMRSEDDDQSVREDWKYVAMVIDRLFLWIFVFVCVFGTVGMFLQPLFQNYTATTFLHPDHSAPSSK
# T1 sequence (P36544 23-502): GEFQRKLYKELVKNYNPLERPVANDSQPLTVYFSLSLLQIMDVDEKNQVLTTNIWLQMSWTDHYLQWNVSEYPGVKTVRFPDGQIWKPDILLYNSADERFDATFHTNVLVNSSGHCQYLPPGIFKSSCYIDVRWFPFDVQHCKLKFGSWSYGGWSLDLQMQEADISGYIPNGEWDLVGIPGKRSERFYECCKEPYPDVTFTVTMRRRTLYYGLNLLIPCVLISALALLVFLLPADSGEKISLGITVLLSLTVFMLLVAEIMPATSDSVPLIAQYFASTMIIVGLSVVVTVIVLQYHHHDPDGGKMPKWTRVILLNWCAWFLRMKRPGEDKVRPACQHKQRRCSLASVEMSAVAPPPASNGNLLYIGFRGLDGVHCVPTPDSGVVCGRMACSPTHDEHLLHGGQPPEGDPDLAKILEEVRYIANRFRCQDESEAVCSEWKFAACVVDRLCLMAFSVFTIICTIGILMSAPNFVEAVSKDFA
# T7 sequence (P04756 21-457): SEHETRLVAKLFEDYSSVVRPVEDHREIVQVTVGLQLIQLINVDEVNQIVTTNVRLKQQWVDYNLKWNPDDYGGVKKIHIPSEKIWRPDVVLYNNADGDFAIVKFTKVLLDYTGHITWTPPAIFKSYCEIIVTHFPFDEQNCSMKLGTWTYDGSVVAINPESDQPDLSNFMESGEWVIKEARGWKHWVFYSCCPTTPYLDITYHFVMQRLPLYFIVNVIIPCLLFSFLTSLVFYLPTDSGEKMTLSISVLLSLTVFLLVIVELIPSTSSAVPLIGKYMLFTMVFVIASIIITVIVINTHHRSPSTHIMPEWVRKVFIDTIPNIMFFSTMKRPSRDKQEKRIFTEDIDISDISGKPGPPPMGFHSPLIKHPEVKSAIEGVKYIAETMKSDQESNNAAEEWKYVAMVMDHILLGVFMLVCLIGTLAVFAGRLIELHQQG
# T7 sequence (P09690 24-501): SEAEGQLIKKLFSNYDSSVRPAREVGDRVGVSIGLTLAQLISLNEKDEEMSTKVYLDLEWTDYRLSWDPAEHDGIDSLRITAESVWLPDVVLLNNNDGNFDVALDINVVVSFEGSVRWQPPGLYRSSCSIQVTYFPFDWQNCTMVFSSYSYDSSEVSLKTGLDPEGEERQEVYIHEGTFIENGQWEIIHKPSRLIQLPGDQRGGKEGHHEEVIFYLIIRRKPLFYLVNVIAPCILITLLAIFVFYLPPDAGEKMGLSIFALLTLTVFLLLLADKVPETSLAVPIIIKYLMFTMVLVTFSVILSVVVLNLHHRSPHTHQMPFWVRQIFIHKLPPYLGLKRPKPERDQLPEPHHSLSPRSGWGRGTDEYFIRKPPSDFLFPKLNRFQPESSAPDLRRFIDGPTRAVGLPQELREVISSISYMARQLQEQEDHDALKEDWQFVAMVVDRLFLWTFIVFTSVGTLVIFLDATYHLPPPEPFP
# T7 sequence (P04760 23-519): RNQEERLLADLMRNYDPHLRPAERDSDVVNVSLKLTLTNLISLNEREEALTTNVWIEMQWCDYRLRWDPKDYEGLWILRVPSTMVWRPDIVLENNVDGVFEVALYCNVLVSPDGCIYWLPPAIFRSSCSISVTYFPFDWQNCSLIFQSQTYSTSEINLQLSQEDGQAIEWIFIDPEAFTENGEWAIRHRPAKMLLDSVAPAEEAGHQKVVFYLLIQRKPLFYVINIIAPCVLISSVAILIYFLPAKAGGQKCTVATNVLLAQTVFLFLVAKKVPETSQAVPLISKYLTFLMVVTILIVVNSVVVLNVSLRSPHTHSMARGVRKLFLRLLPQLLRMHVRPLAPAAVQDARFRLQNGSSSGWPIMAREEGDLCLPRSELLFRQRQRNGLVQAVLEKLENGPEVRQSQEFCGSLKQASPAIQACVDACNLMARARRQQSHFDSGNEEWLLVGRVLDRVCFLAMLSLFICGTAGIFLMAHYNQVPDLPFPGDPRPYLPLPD
# T7 sequence (P02716 25-520): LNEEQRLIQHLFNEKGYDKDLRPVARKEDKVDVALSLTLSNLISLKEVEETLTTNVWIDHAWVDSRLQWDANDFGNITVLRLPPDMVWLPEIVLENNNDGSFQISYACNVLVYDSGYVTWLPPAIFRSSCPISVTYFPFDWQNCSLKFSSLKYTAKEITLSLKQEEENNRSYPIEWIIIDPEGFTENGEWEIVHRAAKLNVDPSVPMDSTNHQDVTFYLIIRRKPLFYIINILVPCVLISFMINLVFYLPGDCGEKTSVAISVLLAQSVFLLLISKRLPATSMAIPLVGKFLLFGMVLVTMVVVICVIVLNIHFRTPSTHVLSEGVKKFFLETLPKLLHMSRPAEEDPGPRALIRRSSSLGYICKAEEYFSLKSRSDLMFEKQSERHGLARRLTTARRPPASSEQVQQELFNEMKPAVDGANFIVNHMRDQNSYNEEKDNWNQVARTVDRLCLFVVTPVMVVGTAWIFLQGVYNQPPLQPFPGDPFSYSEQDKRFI
# T6 sequence (P09483 31-630, stated change not applied): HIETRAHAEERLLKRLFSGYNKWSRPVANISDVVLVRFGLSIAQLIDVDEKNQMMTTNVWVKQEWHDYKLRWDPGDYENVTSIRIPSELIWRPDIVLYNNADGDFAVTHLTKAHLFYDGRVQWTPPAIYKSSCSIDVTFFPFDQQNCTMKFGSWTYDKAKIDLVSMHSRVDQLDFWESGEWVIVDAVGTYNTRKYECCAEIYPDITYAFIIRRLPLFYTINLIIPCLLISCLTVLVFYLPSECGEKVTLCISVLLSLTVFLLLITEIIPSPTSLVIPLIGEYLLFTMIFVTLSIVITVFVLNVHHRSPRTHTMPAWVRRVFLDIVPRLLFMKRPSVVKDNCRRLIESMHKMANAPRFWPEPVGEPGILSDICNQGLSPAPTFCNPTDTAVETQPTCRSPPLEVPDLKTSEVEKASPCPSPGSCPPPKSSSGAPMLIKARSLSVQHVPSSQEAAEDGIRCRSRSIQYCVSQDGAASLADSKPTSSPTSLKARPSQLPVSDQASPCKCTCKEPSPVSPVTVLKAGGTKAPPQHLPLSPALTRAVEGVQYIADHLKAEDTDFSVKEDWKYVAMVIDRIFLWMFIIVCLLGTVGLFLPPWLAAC
# T6 sequence (P12390 25-500 V277F): as the sequence (P12390 25-500) above, with V253F counted along it
# T4 sequence (P09483 31-630): as the sequence (P09483 31-630, stated change not applied) above
# T4 sequence (P12392 21-495): as the sequence (P12392 21-495 F275V) above, with V255F counted along it
# T2 sequence (P09483 31-630): as the sequence (P09483 31-630, stated change not applied) above
# T2 sequence (P12390 25-500): as the sequence (P12390 25-500) above
compound,measurement,setting,value
CCCC(=O)N[C@@H](Cc1ccc(O)cc1)C(=O)NCCCCCCCCCCCCN [PhTX-12],IC50,"α7 nAChR; Late, α7, VH −60 mV, based on the area under the current trace (no stable late current)",8320 nM
same,IC50,"α7 nAChR; Late, α7, VH −80 mV, based on the area under the current trace (no stable late current)",4900 nM and 4920 nM
same,IC50,"α7 nAChR; Late, α7, VH −100 mV, based on the area under the current trace (no stable late current)",5020 nM
same,IC50,"α7 nAChR; Peak, α7, VH −60 mV, peak current",18700 nM
same,IC50,"α7 nAChR; Peak, α7, VH −80 mV, peak current",11100 nM
same,IC50,"α7 nAChR; Peak, α7, VH −100 mV, peak current",12100 nM
same,recovery of the late current after 6 min,"α7 nAChR; α7, 10 μM toxin, −80 mV",complete
same,times less sensitive than the most sensitive subtype,"α7 nAChR; α7 vs α3β4 (for PhTX-12: α1β1γδ along with α3β4), late current IC50, −80 mV",49 times
same,IC50,"α4β2 nAChR; Late, α4β2, VH −60 mV, late current (1 min)",230 nM
same,IC50,"α4β2 nAChR; Late, α4β2, VH −80 mV, late current (1 min)",280 nM
same,IC50,"α4β2 nAChR; Late, α4β2, VH −100 mV, late current (1 min)",44 nM
same,IC50,"α4β2 nAChR; Peak, α4β2, VH −60 mV, peak current",3870 nM
same,IC50,"α4β2 nAChR; Peak, α4β2, VH −80 mV, peak current",2170 nM
same,IC50,"α4β2 nAChR; Peak, α4β2, VH −100 mV, peak current",1640 nM
same,times less sensitive than the most sensitive subtype,"α4β2 nAChR; α4β2 vs α3β4 (for PhTX-12: α1β1γδ along with α3β4), late current IC50, −80 mV",3 times
same,increase in late current IC50 as compared to α3β4,"α3β4(F255V) nAChR; α3β4(F255V) vs α3β4, late current, −80 mV",3.3 fold
same,reduction in peak current IC50 as compared to α3β4,"α3β4(F255V) nAChR; α3β4(F255V) vs α3β4, peak current, −80 mV",no difference
same,IC50,α3β4(F255V) nAChR; [2],520 nM
same,IC50,α3β4(F255V) nAChR; [3],1630 nM
same,IC50,α3β4(F255V) nAChR; [4],360 nM
same,IC50,α3β4(F255V) nAChR; [5],2780 nM
same,IC50,α3β4(F255V) nAChR; [6],68 nM
same,IC50,α3β4(F255V) nAChR; [7],1050 nM
same,IC50,"α3β2 nAChR; Late, α3β2, VH −60 mV, late current (1 min)",3200 nM
same,IC50,"α3β2 nAChR; Late, α3β2, VH −80 mV, late current (1 min)",2570 nM
same,IC50,"α3β2 nAChR; Late, α3β2, VH −100 mV, late current (1 min)",1380 nM
same,IC50,"α3β2 nAChR; Peak, α3β2, VH −60 mV, peak current",65200 nM
same,IC50,"α3β2 nAChR; Peak, α3β2, VH −80 mV, peak current",60000 nM and 60600 nM
same,IC50,"α3β2 nAChR; Peak, α3β2, VH −100 mV, peak current",74400 nM
same,recovery of the late current after 6 min,"α3β2 nAChR; α3β2, 10 μM toxin, −80 mV",complete
same,recovery of the peak current after 6 min,"α3β2 nAChR; α3β2, 10 μM toxin, −80 mV",complete
same,times less sensitive than the most sensitive subtype,"α3β2 nAChR; α3β2 vs α3β4 (for PhTX-12: α1β1γδ along with α3β4), late current IC50, −80 mV",26 times
same,IC50,"α4β4 nAChR; Late, α4β4, VH −60 mV, late current (1 min)",250 nM
same,IC50,"α4β4 nAChR; Late, α4β4, VH −80 mV, late current (1 min)",290 nM
same,IC50,"α4β4 nAChR; Late, α4β4, VH −100 mV, late current (1 min)",190 nM
same,IC50,"α4β4 nAChR; Peak, α4β4, VH −60 mV, peak current",1210 nM
same,IC50,"α4β4 nAChR; Peak, α4β4, VH −80 mV, peak current",1650 nM
same,IC50,"α4β4 nAChR; Peak, α4β4, VH −100 mV, peak current",2770 nM
same,"voltage dependence of inhibition, late current","α4β4 nAChR; α4β4, late current IC50 values, VH −60 to −100 mV",voltage-independent
same,times less sensitive than the most sensitive subtype,"α4β4 nAChR; α4β4 vs α3β4 (for PhTX-12: α1β1γδ along with α3β4), late current IC50, −80 mV",3 times
same,IC50,"α3β4 nAChR; IC50 (95% CI), Late, α3β4, VH −60 mV, late current (1 min), ACh 100 μM",110 nM
same,IC50,"α3β4 nAChR; IC50 (95% CI), Late, α3β4, VH −80 mV, late current (1 min), ACh 100 μM",110 nM
same,IC50,"α3β4 nAChR; IC50 (95% CI), Late, α3β4, VH −100 mV, late current (1 min), ACh 100 μM",27 nM
same,IC50,"α3β4 nAChR; IC50 (95% CI), Peak, α3β4, VH −60 mV, peak current, ACh 100 μM",3090 nM
same,IC50,"α3β4 nAChR; IC50 (95% CI), Peak, α3β4, VH −80 mV, peak current, ACh 100 μM",2620 nM
same,IC50,"α3β4 nAChR; IC50 (95% CI), Peak, α3β4, VH −100 mV, peak current, ACh 100 μM",2030 nM
same,IC50,"α3β4 nAChR; IC50, α3β4, late current, −80 mV",100 nM
same,surmountability of late current inhibition,"α3β4 nAChR; α3β4, 0.3 μM toxin, late current, −80 mV",insurmountable
same,surmountability of peak current inhibition by higher ACh concentrations,"α3β4 nAChR; α3β4, 10 μM toxin, peak current, −80 mV",surmountable
same,peak current during the first ACh application after removal of toxin (6 min),"α3β4 nAChR; α3β4, after 10 μM toxin, mean of all cells, −80 mV, not significantly greater than control (p = 0.217)",119.4 % control response
same,reduction in late current IC50 as compared to α4β2,"α4β2(V253F) nAChR; α4β2(V253F) vs α4β2, late current, −80 mV",no significant differences
same,change in peak current IC50 as compared to α4β2,"α4β2(V253F) nAChR; α4β2(V253F) vs α4β2, peak current, −80 mV",no significant differences
same,IC50,α4β2(V253F) nAChR; [2],410 nM
same,IC50,α4β2(V253F) nAChR; [3],2220 nM
same,IC50,α4β2(V253F) nAChR; [4],300 nM
same,IC50,α4β2(V253F) nAChR; [5],4050 nM
same,IC50,α4β2(V253F) nAChR; [6],190 nM
same,IC50,α4β2(V253F) nAChR; [7],3480 nM
same,effect on membrane current when applied alone,"nAChRs; 100 μM applied alone, VH = −80 mV, oocytes expressing nAChRs",did not produce any effect on membrane current
same,voltage dependence of inhibition of peak current,"nAChRs; all nAChRs, peak current, VH −60 to −100 mV",voltage-independent for all nAChRs except for homomeric α7
same,reversibility of inhibition of nAChRs,"nAChRs; all subunit combinations, 10 μM toxin, −80 mV",fully or almost reversible after 6 min
same,IC50,"α1β1γδ nAChR; Late, VH −60 mV, late current (1 min)",70 nM
same,IC50,"α1β1γδ nAChR; Late, VH −80 mV, late current (1 min)",100 nM
same,IC50,"α1β1γδ nAChR; Late, VH −100 mV, late current (1 min)",71 nM
same,IC50,"α1β1γδ nAChR; Peak, VH −60 mV, peak current",3160 nM
same,IC50,"α1β1γδ nAChR; Peak, VH −80 mV, peak current",6180 nM
same,IC50,"α1β1γδ nAChR; Peak, VH −100 mV, peak current",5020 nM
same,surmountability of late current inhibition,"α1β1γδ nAChR; 0.3 μM toxin, late current, −80 mV",insurmountable
same,surmountability of peak current inhibition by increasing ACh concentrations,"α1β1γδ nAChR; 10 μM toxin, peak current, −80 mV",surmountable
same,"voltage dependence of inhibition, late current","α1β1γδ nAChR; late current IC50 values, VH −60 to −100 mV",voltage-independent
same,lower potency at human muscle-type nAChRs in TE671 cells than in the present study,[1],11 fold
